Article PMC7794297

How the values were obtained:
[1] = Spermine-templated DCL of building blocks 1-4; conditions: spermine DCL of 1-4
Description: Building blocks 2 and 3 equipped with carboxylate moieties to establish interactions with the protonated amine groups of the spermine were allowed to equilibrate at pH 7.8 and 6 °C (Fig. 8a). As expected in our control experiment, the major component in the absence of spermine was the linear tetramer (2)2(3)2. After the addition of spermine, the linear tetramer “decomposed” in order to form mainly the cyclic tetramer of (2)4, and the (3)2 dimer (Fig. 8a). As it was reported, several studies determined that the spermine was threaded through the macrocycle fixing the configuration to a highly symmetric stereoisomer of (2)4[36]. […] The precise composition of the DCL (with and without spermine), was assessed by measuring the relative peak area (RPA). Indeed, the normalized change of RPA was used to quantify the spermine influence in the outcome (Supplementary Fig. 42)[46]. The same template (spermine) was tested in our reference DCL of four building blocks (1–4) in the absence and presence of Secox (Fig. 8b). […] Additionally, two different templates were tested to confirm the absence of conflict between selenocystine and the templating effect. Spermidine and NADPH were introduced in our 4 building blocks DCL (1–4) in the absence and presence of Secox, leading to the amplification of different species and getting the same results as the non-catalyzed DCLs (Supplementary Figs. 44, 45, Supplementary Tables 7–10, and Supplementary Methods).
The mixture was stabilized in 96 h. […] The mixture was stabilized after 24 h. […] It was stabilized in 24 h. […] DCL was equilibrated in 96 h. DCLs were performed without stirring at 6 °C and analyzed by HPLC-MS.

glucose oxidase (GOx) = glucose oxidase (GOx) (Aspergillus niger, UniProt P13006); test: Tryptophan fluorescence emission binding experiments with GOx; parameters: purchased Sigma Aldrich; conditions: for Emmsion average / Normalized Fluorescence: Supplementary Figure 52 b
glucose oxidase (GOx), sequence (P13006 17-605): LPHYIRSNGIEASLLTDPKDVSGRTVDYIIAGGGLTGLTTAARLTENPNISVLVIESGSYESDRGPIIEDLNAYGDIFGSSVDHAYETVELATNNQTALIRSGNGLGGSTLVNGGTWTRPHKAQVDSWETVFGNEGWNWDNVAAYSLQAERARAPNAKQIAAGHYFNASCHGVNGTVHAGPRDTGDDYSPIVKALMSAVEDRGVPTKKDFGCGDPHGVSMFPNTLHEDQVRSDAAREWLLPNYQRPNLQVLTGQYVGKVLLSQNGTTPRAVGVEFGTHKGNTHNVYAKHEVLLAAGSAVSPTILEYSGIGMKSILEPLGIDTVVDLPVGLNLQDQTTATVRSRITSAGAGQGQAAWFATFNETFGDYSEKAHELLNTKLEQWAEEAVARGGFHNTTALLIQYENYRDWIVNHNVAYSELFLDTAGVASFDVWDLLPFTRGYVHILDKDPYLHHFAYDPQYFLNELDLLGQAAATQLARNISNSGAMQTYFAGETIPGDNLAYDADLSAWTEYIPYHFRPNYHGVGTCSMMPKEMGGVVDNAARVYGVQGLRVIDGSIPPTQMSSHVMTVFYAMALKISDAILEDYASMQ

c1ccc(SSc2ccccc2)cc1 [(4)2]
Normalized Change of RPA (NC) ([1]; 0% Secox): 0,59 | Normalized Change of RPA (NC) ([1]; 5% Secox): 0,53 | Emmsion average (glucose oxidase (GOx); [(4)2] 40 μM): 2487781 | Normalized Fluorescence (glucose oxidase (GOx); [(4)2] 40 μM): 0.09492 | Emmsion average (glucose oxidase (GOx); [(4)2] 80 μM): 2153387 | Normalized Fluorescence (glucose oxidase (GOx); [(4)2] 80 μM): 0.2166 | Emmsion average (glucose oxidase (GOx); [(4)2] 400 μM): 1756334 | Normalized Fluorescence (glucose oxidase (GOx); [(4)2] 400 μM): 0.361 | Emmsion average (glucose oxidase (GOx); [(4)2] 2000 μM): 1449655 | Normalized Fluorescence (glucose oxidase (GOx); [(4)2] 2000 μM): 0.4726 | Emmsion average (glucose oxidase (GOx); [(4)2] 4000 μM): 1064446 | Normalized Fluorescence (glucose oxidase (GOx); [(4)2] 4000 μM): 0.6127 | Emmsion average (glucose oxidase (GOx); [(4)2] 8000 μM): 516610 | Normalized Fluorescence (glucose oxidase (GOx); [(4)2] 8000 μM): 0.8121 | Emmsion average (glucose oxidase (GOx); [(4)2] 16000 μM): 236911 | Normalized Fluorescence (glucose oxidase (GOx); [(4)2] 16000 μM): 0.9138 | Kd (glucose oxidase (GOx); apparent dissociation constant, GOx 0.8 µM, Tris pH 7.8, 5% DMSO, 10 °C, read-out: Kd'): 110 ± 10 µM
